Results from US8889874B2, “Imidazolone-chalcone derivatives as potential anticancer agent and process for the preparation thereof” (Council of Scientific and Industrial Research, priority 2010, dated 2014).

Key:
Test in all cases: NCI anticancer screen, SRB assay, 48 h
Assay type in all cases: cell-based, human
[1] = test system: A549/ATCC (non-small cell lung)
Method in brief: (§1)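 Sulforhodamine B protein assay read cell growth after 48 h of continuous compound exposure. Dose-response curves per cell line used at least five 10-fold-diluted concentrations, within a panel of fifty-three human lines from nine tumour types.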

[2] = test system: ACHN (renal)
Method in brief: as §1

[3] = test system: CAKI-1 (renal)
Method in brief: as §1

[4] = test system: COLO 205 (colon)
Method in brief: as §1

[5] = test system: EKVX (non-small cell lung)
Method in brief: as §1

[6] = test system: HCT-116 (colon)
Method in brief: as §1

[7] = test system: HOP-62 (non-small cell lung)
Method in brief: as §1

[8] = test system: HT29 (colon)
Method in brief: as §1

[9] = test system: KM12 (colon)
Method in brief: as §1

[10] = test system: M14 (melanoma)
Method in brief: as §1

[11] = test system: MALME-3M (melanoma); conditions: MALME-3M
Method in brief: as §1

[12] = test system: NCI-H226 (non-small cell lung)
Method in brief: as §1

[13] = test system: NCI-H23 (non-small cell lung)
Method in brief: as §1

[14] = test system: NCI-H322M (non-small cell lung)
Method in brief: as §1

[15] = test system: NCI-H522 (non-small cell lung)
Method in brief: as §1

[16] = test system: NCI/ADR-RES (ovarian)
Method in brief: as §1

[17] = test system: OVCAR-3 (ovarian)
Method in brief: as §1

[18] = test system: OVCAR-4 (ovarian)
Method in brief: as §1

[19] = test system: OVCAR-8 (ovarian)
Method in brief: as §1

[20] = test system: RPMI-8226 (leukemia cell line)
Method in brief: as §1

[21] = test system: RXF 393 (renal)
Method in brief: as §1

[22] = test system: SK-MEL-2 (melanoma)
Method in brief: as §1

[23] = test system: SK-MEL-28 (melanoma)
Method in brief: as §1

[24] = test system: SK-OV-3 (ovarian)
Method in brief: as §1

[25] = test system: SNB-19 (CNS)
Method in brief: as §1

[26] = test system: SNB-75 (CNS)
Method in brief: as §1

[27] = test system: TD-47D (breast)
Method in brief: as §1

[28] = test system: UACC-257 (melanoma)
Method in brief: as §1

[29] = test system: UACC-62 (melanoma)
Method in brief: as §1

[30] = test system: UO-31 (renal)
Method in brief: as §1

[31] = 48 h exposure, SRB, read-out: GI50

**Q.** With COc1ccc(-c2cn(-c3cccc(C(=O)/C=C/c4cc(OC)c(OC)c(OC)c4)c3)c(=O)[nH]2)cc1 [5b, 4-(4-methoxyphenyl)-1-3-[(E)-3-(3,4,5-trimethoxyphenyl)-2-propenoyl]phenyl-2,3-dihydro-1H-2-imidazolone] as the compound, how does the “pGI50 (-log of molar concentration causing 50% inhibition of net cell growth)” value [1] read?
**A.** 4.93

**Q.** And the GI50 [1, 31]?
**A.** 11800 nM

**Q.** What about the “pGI50 (-log of molar concentration causing 50% inhibition of net cell growth)” value [2] of the same compound?
**A.** 5.74

**Q.** And the GI50 [2, 31]?
**A.** 1820 nM

**Q.** And the “pGI50 (-log of molar concentration causing 50% inhibition of net cell growth)” value [3]?
**A.** 5.52

**Q.** What about the GI50 [3, 31] of the same compound?
**A.** 3050 nM

**Q.** And the “pGI50 (-log of molar concentration causing 50% inhibition of net cell growth)” value ([4]; COLO205)?
**A.** 5.74

**Q.** What about the GI50 ([4]; COLO 205, 48 h exposure, SRB, read-out: GI50) of the same compound?
**A.** 1840 nM

**Q.** What about the “pGI50 (-log of molar concentration causing 50% inhibition of net cell growth)” value [5] of the same compound?
**A.** 5.38

**Q.** And the GI50 [5, 31]?
**A.** 4200 nM

**Q.** What about the “pGI50 (-log of molar concentration causing 50% inhibition of net cell growth)” value [6] of the same compound?
**A.** 6.43

**Q.** And the GI50 [6, 31]?
**A.** 370 nM

**Q.** What about the “pGI50 (-log of molar concentration causing 50% inhibition of net cell growth)” value [7] of the same compound?
**A.** 5.23

**Q.** And the GI50 [7, 31]?
**A.** 5910 nM

**Q.** And the “pGI50 (-log of molar concentration causing 50% inhibition of net cell growth)” value [8]?
**A.** 5.89

**Q.** What about the GI50 [8, 31] of the same compound?
**A.** 1280 nM

**Q.** What about the “pGI50 (-log of molar concentration causing 50% inhibition of net cell growth)” value [9] of the same compound?
**A.** 5.85

**Q.** What about the GI50 [9, 31] of the same compound?
**A.** 1420 nM

**Q.** And the “pGI50 (-log of molar concentration causing 50% inhibition of net cell growth)” value [10]?
**A.** 5.73

**Q.** What about the GI50 [10, 31] of the same compound?
**A.** 1850 nM

**Q.** What about the “pGI50 (-log of molar concentration causing 50% inhibition of net cell growth)” value [11] of the same compound?
**A.** 5.75

**Q.** What about the GI50 [11, 31] of the same compound?
**A.** 1790 nM

**Q.** And the “pGI50 (-log of molar concentration causing 50% inhibition of net cell growth)” value [12]?
**A.** 4.45

**Q.** What about the GI50 [12, 31] of the same compound?
**A.** 35200 nM

**Q.** And the “pGI50 (-log of molar concentration causing 50% inhibition of net cell growth)” value [13]?
**A.** 5.79

**Q.** What about the GI50 [13, 31] of the same compound?
**A.** 1630 nM

**Q.** What about the “pGI50 (-log of molar concentration causing 50% inhibition of net cell growth)” value [14] of the same compound?
**A.** 5.58

**Q.** And the GI50 [14, 31]?
**A.** 2660 nM

**Q.** What about the “pGI50 (-log of molar concentration causing 50% inhibition of net cell growth)” value [15] of the same compound?
**A.** 5.73

**Q.** And the GI50 [15, 31]?
**A.** 1850 nM

**Q.** And the “pGI50 (-log of molar concentration causing 50% inhibition of net cell growth)” value ([16]; NCI/ADR-RES)?
**A.** 5.77

**Q.** And the GI50 ([16]; NCl/ADR-RES, 48 h exposure, SRB, read-out: GI50)?
**A.** 1700 nM

**Q.** What about the “pGI50 (-log of molar concentration causing 50% inhibition of net cell growth)” value [17] of the same compound?
**A.** 5.75

**Q.** And the GI50 [17, 31]?
**A.** 1780 nM

**Q.** What about the “pGI50 (-log of molar concentration causing 50% inhibition of net cell growth)” value [18] of the same compound?
**A.** 5.45

**Q.** What about the GI50 [18, 31] of the same compound?
**A.** 3570 nM

**Q.** And the “pGI50 (-log of molar concentration causing 50% inhibition of net cell growth)” value [19]?
**A.** 5.60

**Q.** And the GI50 [19, 31]?
**A.** 2530 nM

**Q.** And the “pGI50 (-log of molar concentration causing 50% inhibition of net cell growth)” value [20]?
**A.** 6.04

**Q.** What about the GI50 [20, 31] of the same compound?
**A.** 920 nM

**Q.** And the GI50 ([21]; RXF 393, 48 h exposure, SRB, read-out: GI50)?
**A.** 1920 nM

**Q.** What about the “pGI50 (-log of molar concentration causing 50% inhibition of net cell growth)” value ([21]; RXF-393) of the same compound?
**A.** 5.72

**Q.** What about the “pGI50 (-log of molar concentration causing 50% inhibition of net cell growth)” value [22] of the same compound?
**A.** 5.58

**Q.** What about the GI50 [22, 31] of the same compound?
**A.** 2630 nM

**Q.** And the “pGI50 (-log of molar concentration causing 50% inhibition of net cell growth)” value [23]?
**A.** 5.69

**Q.** And the GI50 [23, 31]?
**A.** 2030 nM

**Q.** What about the “pGI50 (-log of molar concentration causing 50% inhibition of net cell growth)” value [24] of the same compound?
**A.** 5.34

**Q.** What about the GI50 [24, 31] of the same compound?
**A.** 4600 nM

**Q.** What about the “pGI50 (-log of molar concentration causing 50% inhibition of net cell growth)” value [25] of the same compound?
**A.** 5.36

**Q.** And the GI50 [25, 31]?
**A.** 4380 nM

**Q.** What about the “pGI50 (-log of molar concentration causing 50% inhibition of net cell growth)” value [26] of the same compound?
**A.** 5.34

**Q.** What about the GI50 [26, 31] of the same compound?
**A.** 4590 nM

**Q.** What about the “pGI50 (-log of molar concentration causing 50% inhibition of net cell growth)” value [27] of the same compound?
**A.** 5.42

**Q.** What about the GI50 [27, 31] of the same compound?
**A.** 3840 nM

**Q.** What about the “pGI50 (-log of molar concentration causing 50% inhibition of net cell growth)” value [28] of the same compound?
**A.** 5.52

**Q.** And the GI50 [28, 31]?
**A.** 3040 nM

**Q.** And the “pGI50 (-log of molar concentration causing 50% inhibition of net cell growth)” value [29]?
**A.** 5.69

**Q.** What about the GI50 [29, 31] of the same compound?
**A.** 2060 nM

**Q.** What about the “pGI50 (-log of molar concentration causing 50% inhibition of net cell growth)” value [30] of the same compound?
**A.** 5.72

**Q.** What about the GI50 [30, 31] of the same compound?
**A.** 1910 nM
